Laboratory results: US20220409620A1, “REDUCING IMMUNOGENICITY TO PEGLOTICASE” (Horizon Pharma Rheumatology LLC, priority 2016, published 2022)
Like-named read-outs stand apart in the source and are kept apart here.

How the values were obtained:
[1] = MTX polyglutamates 1 to 5 in red blood cells, MIRROR OL; assay type: in vivo, human; conditions: during the treatment course; FIG. 2
Protocol: Blood samples were collected prior to pegloticase infusion on Day 1 and at the Weeks 4, 8, 22 and 36 Visits or at Day 1 and weeks 14, 24, and 36 visits during the Pegloticase+IMM for MTX Polyglutamate analysis for the open-label and randomized studies, respectively.
Methods: In the MIRROR OL trial, MTX (15 mg/week) was given orally 4 weeks prior to the first pegloticase dose and continued weekly, in combination with pegloticase 8 mg given intravenously every 2 weeks, for a treatment duration of up to 52 weeks. Pre-infusion samples were collected to measure MTX-PGs 1 to 5 in red blood cells at day 1, week 4, 8, 22, 24 and 36. […] Pegloticase concentrations in serum was measured using a validated enzymatic/fluorescence assay. The limit of quantification is 0.6 μg/mL. Anti-pegloticase/PEG IgG antibodies (ADA) were measured using a validated enzyme linked immunosorbent assay (ELISA). The analysis of MTX Polyglutamates was conducted by Exagen. The impact of MTX on pegloticase PK was evaluated by two methods: (1) Comparing pegloticase exposures (median Cmax and Cmin across visits) with MTX from the MIRROR OL trial to the observed levels in historical monotherapy Phase 3 studies (C0405 and C0406) (Lipsky et al., Arthritis Res Ther 16(2), 2014; Sundy et al., JAMA 306(7), 2011). […]

[2] = test system: adult patients with uncontrolled gout; conditions: human, in vivo
[3] = test system: patients with refractory chronic gout; test: Prior Phase 3 / pre-marketing pegloticase monotherapy trials (C0405 and C0406): response, infusion reactions, antibodies, PK; assay type: in vivo, human
Protocol: Improvements were more rapid in patients who received pegloticase 8 mg every 2 weeks compared to every 4 weeks and met the outcomes data of complete resolution of at least 1 tophus with no new or progressive tophi as assessed by blinded assessment of digital photographs of target tophi.
During the second 3 months of treatment, a lower proportion of pegloticase-treated patients experienced flares than patients receiving placebo. The incidence of flares during this period was lowest in the group receiving pegloticase 8 mg every 2 weeks than in the group who received pegloticase 8 mg every 4 weeks, as was the incidence of infusion-related reactions (26% with biweekly dosing vs. 40% with the every-4-week dosing regimen). Both infusion reactions (IRs) and gout flares were least common in patients with sustained urate-lowering responses to treatment and those who received bi-weekly treatment. In most pegloticase-treated patients with IRs, a loss of response to pegloticase (return to SUA >6 mg/dL) preceded the time of the first IR ( 20/21; 95%).
A relationship between the loss of urate-lowering efficacy, incidence of IRs, and high-titer antibody formation was identified in a post-hoc analysis of the pooled data from the Phase 3 studies. […] In one study, 69 (41%) of 169 patients receiving pegloticase developed high titer anti-pegloticase antibodies and subsequently lost response to the drug. In a second study, only 1 of 52 participants with high antibody titers maintained a response to pegloticase (serum urate <6 mg/dL). In addition, 60% participants with high titers developed IR. Anti-pegloticase antibodies were largely directed to the polyethylene glycol (PEG) portion of the molecule and altered the pharmacokinetic clearance of pegloticase, resulting in inhibition of SUA lowering activity. […] In addition, 31 of 52 (60%) patients with titers exceeding 1:2430 developed IRs. […] By preventing the formation of anti-pegloticase antibodies, a tolerizing dose regimen should prevent loss of response to the drug and decrease the incidence of IRs associated with it.
An AE that was not an unexpected AE was an infusion reaction and rarely anaphylaxis. Safety assessments in this study include an evaluation of the frequency and severity of IRs and anaphylaxis. During pre-marketing controlled clinical trials, infusion reactions were reported in 26% of patients treated with pegloticase 8 mg every 2 weeks. During pre-marketing controlled clinical trials, anaphylaxis was reported with a frequency of 6.5% of patients treated with pegloticase. For the purposes of this study, these events shall be defined as follows: […]
Methods: In the MIRROR OL trial, MTX (15 mg/week) was given orally 4 weeks prior to the first pegloticase dose and continued weekly, in combination with pegloticase 8 mg given intravenously every 2 weeks, for a treatment duration of up to 52 weeks. Pre-infusion samples were collected to measure MTX-PGs 1 to 5 in red blood cells at day 1, week 4, 8, 22, 24 and 36. […] Pegloticase concentrations in serum was measured using a validated enzymatic/fluorescence assay. The limit of quantification is 0.6 μg/mL. Anti-pegloticase/PEG IgG antibodies (ADA) were measured using a validated enzyme linked immunosorbent assay (ELISA). The analysis of MTX Polyglutamates was conducted by Exagen. The impact of MTX on pegloticase PK was evaluated by two methods: (1) Comparing pegloticase exposures (median Cmax and Cmin across visits) with MTX from the MIRROR OL trial to the observed levels in historical monotherapy Phase 3 studies (C0405 and C0406) (Lipsky et al., Arthritis Res Ther 16(2), 2014; Sundy et al., JAMA 306(7), 2011). Overlaying observed pegloticase concentrations with MTX against the 90% prediction band of pegloticase concentrations following monotherapy based on the population PK model from the Phase 3 data (Yue et al., ASCPT. Atlanta, 2010).

[4] = Stability of pegloticase diluted in infusion bags; assay type: physicochemical; conditions: at 2° C. to 8° C. and at room temperature (20° C. to 25° C.)
Protocol: Pegloticase diluted in infusion bags was stable for 4 hours at 2° C. to 8° C. (36° F. to 46° F.) and at room temperature (20° C. to 25° C., 68° F. to 77° F.); however, the diluted solution was stored under refrigeration, not frozen, protected from light, and used within 4 hours of dilution. Before administration, the diluted solution of pegloticase was allowed to reach room temperature. Pegloticase in a vial or IV infusion fluid was never subjected to artificial heating.

Compound | Concentrations of MTX-PGs [1] | Number of gout flares among subjects with at least one gout flare, Mean (SD) [2] | Number of gout flares among subjects with at least one gout flare, Median [2] | Any Gout Flares Since the Last Visit, % ([2]; 1 day) | Maximum Reported Intensity of Flare (0-10 scale), Mean ([2]; 1 day) | Maximum Reported Intensity of Flare (0-10 scale), Median ([2]; 1 day) | Maximum Reported Intensity of Flare (0-10 scale), Min, Max ([2]; 1 day) | Pain at rest > 3 out of 10, % ([2]; 1 day) | Pain different than normal, % ([2]; 1 day) | Swelling in Joints, % ([2]; 1 day) | Maximum Reported Intensity of Flare (0-10 scale), Median ([2]; -4 week) | Maximum Reported Intensity of Flare (0-10 scale), Min, Max ([2]; -4 week) | Cmax, Median (Q1, Q3) ([3]; BQL: below 0.6 μg/mL) | Cmin, Median (Q1, Q3) ([3]; BQL: below 0.6 μg/mL) | Cmax BQL, % ([3]; Quantitation Limit 0.6 μg/mL) | Cmax BQL, n/N ([3]; Quantitation Limit 0.6 μg/mL) | Cmin BQL, % ([3]; Quantitation Limit 0.6 μg/mL) | Cmin BQL, n/N ([3]; Quantitation Limit 0.6 μg/mL) | stability of pegloticase diluted in infusion bags [4]
CN(Cc1cnc2nc(N)nc(N)c2n1)c1ccc(C(=O)N[C@@H](CCC(=O)O)C(=O)O)cc1 [MTX, methotrexate] | maintained | 1.2 | 1.0 | (57.1) % | 5.8 | 5.5 | 4, 8 | (57.1) % | (50.0) % | (42.9) % | 8.0 | 7, 10 |  |  |  |  |  |  | 
pegloticase |  |  |  |  |  |  |  |  |  |  |  |  | 1.51 (BQL, 2.48) μg/mL | BQL (BQL, BQL) | 29% | 25/85 | 77% | 63/82 | 4 h
